Results taken from PMC3740800, “Lanostane- and cycloartane-type triterpenoids from Abies balsamea oleoresin” (Beilstein Journal of Organic Chemistry, 2013).
pIC50: −log10 of the molar value. Values after ≈ are worked out from the molar mass of the structure shown.

How the values were obtained:
Type in all cases: cell-based
S. aureus (ATCC 25923) = experiment: antibacterial microdilution assay, S. aureus; conditions: for MIC: Staphylococcus aureus, ATCC25923, 6 h at 37 °C, read-out: MIC against S. aureus
Experimental: (§1) The isolates were evaluated in vitro for their cytotoxic activities against two human cancer cell lines, namely lung carcinoma (A549) and colon adenocarcinoma (DLD-1), as well as against one healthy cell line (WS1) using the resazurin reduction test. Etoposide was used as a positive control (IC50 ≤ 1.0 µM). […] The antibacterial activity of isolated compounds was also evaluated in vitro against E. coli and S. aureus using the microdilution assay with gentamycin as a positive control (MIC < 0.1 µg/mL).
(§2) Antibacterial activity was evaluated using the microdilution method with some modifications. Briefly,
(§3) exponentially growing bacteria were plated in 96-well flat-bottom microplates (BD Falcon) at a density of
(§4) 5 × 103 Gram-negative E. coli (ATCC 25922) or 40 × 103 Gram-positive S. aureus (ATCC 25923) per
(§5) well in 100 μL nutrient broth (Difco). Increasing concentrations of compounds in DMSO (Sigma-Aldrich)
(§6) were then added (100 μL per well). The final concentration of DMSO in the culture medium was
(§7) maintained at 0.25% (v/v) to avoid solvent toxicity. Fifty microliters of 4% resazurin was added to each
(§8) well and the microplates were incubated for 6 h at 37 °C. Absorbance was measured after 6 h on an
(§9) automated 96-well Varioskan plate reader (Thermo-Labsystems) at wavelengths of 600 nm and 660 nm
(§10) for E. coli and S. aureus respectively.

E. coli (ATCC 25922) = experiment: antibacterial microdilution assay, E. coli; conditions: 6 h at 37 °C
Experimental: as §1, §2, §3, §4, §5, §6, §7, §8, §9, §10

[1] = system: normal skin fibroblast (WS1); experiment: cytotoxicity, resazurin reduction test, WS1; conditions: Homo sapiens, WS1 healthy cell line, 48 h incubation, read-out: IC50 (concentration inhibiting 50% of cell growth), WS1
Experimental: as §1
(§11) 23-Oxo-3,4-seco-9βH-lanosta-4(28),7-diene-3,26-dioic acid (9): white amorphous solid; [α]22 −26.9° (c
(§12) Cytotoxic activity bioassay
(§13) Lung carcinoma (A549), colon adenocarcinoma (DLD-1) and normal skin fibroblast (WS1) human cell
(§14) lines were purchased from the American Type Culture Collection (ATCC). All cell lines were cultured in […]
(§15) solvent toxicity. Cytotoxicity was assessed using resazurin reduction test on an automated 96-well
(§16) Fluoroskan Ascent F1TM plate reader (Labsystems) using excitation and emission wavelengths of 530 nm
(§17) and 590 nm, respectively. Fluorescence was proportional to the cellular metabolic activity in each well.
(§18) Survival percentages were defined as the fluorescence in experimental wells compared to that in control
(§19) wells after subtraction of blank values. Cytotoxicity results were expressed as mean ± standard deviation […]

lung carcinoma (A549) = experiment: cytotoxicity, resazurin reduction test, A549; conditions: Homo sapiens, 48 h incubation, read-out: IC50 (concentration inhibiting 50% of cell growth), A549
Experimental: as §1, §11, §12, §13, §14, §15, §16, §17, §18, §19

[2] = system: colon adenocarcinoma (DLD-1); experiment: cytotoxicity, resazurin reduction test, DLD-1; conditions: Homo sapiens, 48 h incubation, read-out: IC50 (concentration inhibiting 50% of cell growth), DLD-1
Experimental: as §1, §11, §12, §13, §14, §15, §16, §17, §18, §19

Compound | MIC (S. aureus (ATCC 25923)) | pIC50 (lung carcinoma (A549)) | also measured
C=C(CC(=O)CC(C)C1CCC2(C)C3CCC4C(C)(C)C(O)CCC45CC35CCC12C)C(=O)O (single isomer, unassigned; (+)) [Compound 4, (+)-rel-3α-hydroxy-23-oxocycloart-25(27)-en-26-oic acid] | 25 µM (≈ 11.8 µg/mL) |  | 
gentamycin |  |  | MIC against S. aureus (positive control) (S. aureus (ATCC 25923); 6 h at 37 °C): < 0.1 µg/mL; MIC against E. coli (positive control) (E. coli (ATCC 25922)): < 0.1 µg/mL
COc1cc([C@@H]2c3cc4c(cc3[C@@H](O[C@@H]3O[C@@H]5CO[C@@H](C)O[C@H]5[C@H](O)[C@H]3O)[C@H]3COC(=O)[C@H]23)OCO4)cc(OC)c1O [Etoposide] |  | ≥ 6.00 | pIC50 [1]: ≥ 6.00; pIC50 [2]: ≥ 6.00
C=C(C)C1CC=C2C(CCC23C(=C)CCC3(C)C(C)CC(=O)C=C(C)C(=O)O)C1(C)CCC(=O)O (centres unmarked) [Compound 6, abiesonic acid] |  | 4.66 | 
C=C(C)C1CC=C2C(CCC23C(=C)CCC3(C)C(C)CC(=O)C=C(C)C(=O)O)C1(C)CCC(=O)OC (single isomer, unassigned; (-)) [Compound 1, (−)-rel-abiesonic acid 3-methyl ester] | 25 µM (≈ 12.4 µg/mL) |  | 
